Reference: PMC5218480 (PLoS ONE, 2017)

Test system: MV-4-11 cells
Assay: Gene expression microarray analysis (Affymetrix PrimeView) and GSEA
Type: cell-based, human
Set-up: RFU PODN (11730768_x_at) / Fold change /veh PODN (11730768_x_at) / RFU LINC00158 (11744669_a_at) / Fold change /veh LINC00158 (11744669_a_at) / RFU DUSP10 (11751237_a_at) / Fold change /veh DUSP10 (11751237_a_at) / RFU ID3 (11757404_x_at) / Fold change /veh ID3 (11757404_x_at) / RFU PLEKHG5 (11737974_s_at) / Fold change /veh PLEKHG5 (11737974_s_at) / RFU LRRC4B (11730491_at) / Fold change /veh LRRC4B (11730491_at) / RFU GIMAP4 (11747438_a_at) / Fold change /veh GIMAP4 (11747438_a_at) / RFU KRT8 (11758183_x_at) / Fold change /veh KRT8 (11758183_x_at) / RFU CNN1 (11734310_a_at) / Fold change /veh CNN1 (11734310_a_at) / RFU VPS37D (11726825_at) / Fold change /veh VPS37D (11726825_at) / RFU C10orf10 (11716522_x_at) / Fold change /veh C10orf10 (11716522_x_at) / RFU KIR2DL2 /// KIR2DL4 /// KIR2DL5A /// KIR2DL5B /// KIR2DS1 /// KIR2DS2 /// KIR2DS3 /// KIR2DS4 /// KIR3DL3 /// KIR3DL3 /// KIR3DS1 (11738374_at) / Fold change /veh KIR2DL2 /// KIR2DL4 /// KIR2DL5A /// KIR2DL5B /// KIR2DS1 /// KIR2DS2 /// KIR2DS3 /// KIR2DS4 /// KIR3DL3 /// KIR3DL3 /// KIR3DS1 (11738374_at) / RFU C1QL1 (11718748_at) / Fold change /veh C1QL1 (11718748_at) / RFU TMPRSS4 (11747572_a_at) / Fold change /veh TMPRSS4 (11747572_a_at) / RFU HAMP (11756126_x_at) / Fold change /veh HAMP (11756126_x_at) / RFU RNFT2 (11725882_a_at) / Fold change /veh RNFT2 (11725882_a_at) / RFU NR4A2 (11747474_a_at) / Fold change /veh NR4A2 (11747474_a_at) / RFU ABCC12 (11746883_a_at) / Fold change /veh ABCC12 (11746883_a_at) / RFU TMEM136 (11760407_x_at) / Fold change /veh TMEM136 (11760407_x_at) / RFU CLDN22 /// WWC2 (11732394_at) / Fold change /veh CLDN22 /// WWC2 (11732394_at) / RFU HLA-DPB1 (11760878_x_at) / Fold change /veh HLA-DPB1 (11760878_x_at) / RFU SPINT1 (11716480_a_at) / Fold change /veh SPINT1 (11716480_a_at) / RFU GAP43 (11754022_s_at) / Fold change /veh GAP43 (11754022_s_at) / RFU A4GNT (11735810_at) / Fold change /veh A4GNT (11735810_at) / RFU PRB3 (11715151_x_at) / Fold change /veh PRB3 (11715151_x_at) / RFU TUBB4B (11761932_at) / Fold change /veh TUBB4B (11761932_at) / RFU CAPN14 (11732068_a_at) / Fold change /veh CAPN14 (11732068_a_at) / RFU TMCC2 (11721928_a_at) / Fold change /veh TMCC2 (11721928_a_at) / RFU IRGQ (11745062_a_at) / Fold change /veh IRGQ (11745062_a_at) / RFU FAM174B (11720279_a_at) / Fold change /veh FAM174B (11720279_a_at) / RFU TMPRSS4 (11748680_a_at) / Fold change /veh TMPRSS4 (11748680_a_at) / RFU FAM212B (11763350_a_at) / Fold change /veh FAM212B (11763350_a_at) / RFU PLEKHG5 (11743358_a_at) / Fold change /veh PLEKHG5 (11743358_a_at) / RFU ZSCAN30 (11745921_a_at) / Fold change /veh ZSCAN30 (11745921_a_at) / RFU CMKLR1 (11741424_a_at) / Fold change /veh CMKLR1 (11741424_a_at) / RFU LOC101060620 /// MAPK8IP1 (11723275_at) / Fold change /veh LOC101060620 /// MAPK8IP1 (11723275_at) / RFU SPTSSB (11747773_x_at) / Fold change /veh SPTSSB (11747773_x_at) / RFU PRSS12 (11739890_at) / Fold change /veh PRSS12 (11739890_at) / RFU BIN1 (11741810_x_at) / Fold change /veh BIN1 (11741810_x_at) / RFU WNT11 (11732464_a_at) / Fold change /veh WNT11 (11732464_a_at) / RFU C10orf10 (11716521_a_at) / Fold change /veh C10orf10 (11716521_a_at) / RFU C5orf56 (11738089_at) / Fold change /veh C5orf56 (11738089_at) / RFU CYB561 (11721691_x_at) / Fold change /veh CYB561 (11721691_x_at) / RFU ANKRD19P (11752326_a_at) / Fold change /veh ANKRD19P (11752326_a_at) / RFU OR2T12 /// OR2T33 /// OR2T8 (11738714_s_at) / Fold change /veh OR2T12 /// OR2T33 /// OR2T8 (11738714_s_at) / RFU VCAN (11748164_a_at) / Fold change /veh VCAN (11748164_a_at) / RFU JSRP1 (11732532_at) / Fold change /veh JSRP1 (11732532_at) / RFU KRTAP10-11 (11738290_x_at) / Fold change /veh KRTAP10-11 (11738290_x_at) / RFU MYO3A (11730013_a_at) / Fold change /veh MYO3A (11730013_a_at) / RFU EBF3 (11725865_a_at) / Fold change /veh EBF3 (11725865_a_at) / RFU CAMK2N1 (11719241_x_at) / Fold change /veh CAMK2N1 (11719241_x_at) / RFU C5orf56 (11738088_a_at) / Fold change /veh C5orf56 (11738088_a_at) / RFU OLFML3 (11715873_a_at) / Fold change /veh OLFML3 (11715873_a_at) / RFU LOC100653217 /// NTM (11731650_a_at) / Fold change /veh LOC100653217 /// NTM (11731650_a_at) / RFU MAPK11 (11762145_a_at) / Fold change /veh MAPK11 (11762145_a_at) / RFU FIZ1 (11724087_x_at) / Fold change /veh FIZ1 (11724087_x_at) / RFU OASL (11726364_x_at) / Fold change /veh OASL (11726364_x_at) / RFU SOX15 (11748057_x_at) / Fold change /veh SOX15 (11748057_x_at) / RFU CD79A (11719716_a_at) / Fold change /veh CD79A (11719716_a_at) / RFU HIST1H1D (11736915_at) / Fold change /veh HIST1H1D (11736915_at) / RFU CASKIN2 (11723855_a_at) / Fold change /veh CASKIN2 (11723855_a_at) / RFU LOC730098 (11760151_x_at) / Fold change /veh LOC730098 (11760151_x_at) / RFU OR4N2 (11742367_at) / Fold change /veh OR4N2 (11742367_at) / RFU PRRT2 (11749266_a_at) / Fold change /veh PRRT2 (11749266_a_at) / RFU SNX32 (11753110_a_at) / Fold change /veh SNX32 (11753110_a_at) / RFU CDHR5 (11726645_a_at) / Fold change /veh CDHR5 (11726645_a_at) / RFU RCAN1 (11760418_a_at) / Fold change /veh RCAN1 (11760418_a_at) / RFU FAM167A (11723789_a_at) / Fold change /veh FAM167A (11723789_a_at) / RFU FAM26E (11764081_at) / Fold change /veh FAM26E (11764081_at) / RFU ISYNA1 (11749810_s_at) / Fold change /veh ISYNA1 (11749810_s_at) / RFU ACY1 (11761880_at) / Fold change /veh ACY1 (11761880_at) / RFU 11764098_at / Fold change /veh 11764098_at / RFU SAMD14 (11745864_x_at) / Fold change /veh SAMD14 (11745864_x_at) / RFU NPB (11741838_a_at) / Fold change /veh NPB (11741838_a_at) / RFU TMPRSS6 (11731388_a_at) / Fold change /veh TMPRSS6 (11731388_a_at) / RFU KRTAP10-2 (11738614_at) / Fold change /veh KRTAP10-2 (11738614_at) / RFU ARHGAP8 /// PRR5-ARHGAP8 (11727945_x_at) / Fold change /veh ARHGAP8 /// PRR5-ARHGAP8 (11727945_x_at) / RFU KRTAP5-7 /// NADSYN1 (11734609_at) / Fold change /veh KRTAP5-7 /// NADSYN1 (11734609_at) / RFU RASL12 (11751679_a_at) / Fold change /veh RASL12 (11751679_a_at) / RFU CDKN2B (11736163_a_at) / Fold change /veh CDKN2B (11736163_a_at) / RFU PRF1 (11729649_at) / Fold change /veh PRF1 (11729649_at) / RFU, ZNF638 /// ZNF638-IT1 / Fold change vs veh, ZNF638 /// ZNF638-IT1 / RFU, PANK3 / Fold change vs veh, PANK3 / RFU, SH3YL1 / Fold change vs veh, SH3YL1 / RFU, ZEB2 / Fold change vs veh, ZEB2 / RFU, NRIP1 / Fold change vs veh, NRIP1 / RFU, PTTG1IP / Fold change vs veh, PTTG1IP / RFU, CAPN2 / Fold change vs veh, CAPN2 / RFU, MED14 / Fold change vs veh, MED14 / RFU, SNORA58 / Fold change vs veh, SNORA58 / RFU, C1orf63 / Fold change vs veh, C1orf63 / RFU, LRRFIP1 / Fold change vs veh, LRRFIP1 / RFU, NDUFAF7 / Fold change vs veh, NDUFAF7 / RFU, SLC12A2 / Fold change vs veh, SLC12A2 / RFU, IBTK / Fold change vs veh, IBTK / RFU, ESF1 / Fold change vs veh, ESF1 / Fold change vs veh, TMEM50B / RFU, TAOK1 / Fold change vs veh, TAOK1 / RFU, ACBD3 / Fold change vs veh, ACBD3 / RFU, TMA16 / Fold change vs veh, TMA16 / RFU, RWDD3 / Fold change vs veh, RWDD3 / RFU, BCAT1 / Fold change vs veh, BCAT1 / RFU, EDEM3 / Fold change vs veh, EDEM3 / RFU, TMEM33 / Fold change vs veh, TMEM33 / RFU, WDR75 / Fold change vs veh, WDR75 / RFU, AHCTF1 / Fold change vs veh, AHCTF1 / RFU, TFRC / Fold change vs veh, TFRC / RFU, ZDHHC17 / Fold change vs veh, ZDHHC17 / RFU, NOM1 / Fold change vs veh, NOM1 / RFU, ARL8B / Fold change vs veh, ARL8B / RFU, ZBTB11 / Fold change vs veh, ZBTB11 / RFU, TAMM41 / Fold change vs veh, TAMM41 / RFU, KIAA1704 /// LOC100996395 / Fold change vs veh, KIAA1704 /// LOC100996395 / RFU, ING1 / Fold change vs veh, ING1 / RFU, TRMT61B / Fold change vs veh, TRMT61B / RFU, FUBP3 / Fold change vs veh, FUBP3 / RFU, TP53 / Fold change vs veh, TP53 / RFU, TNKS2 / Fold change vs veh, TNKS2 / RFU, ZFP14 / Fold change vs veh, ZFP14 / RFU, ACTR2 / Fold change vs veh, ACTR2 / RFU, PPP3R1 / Fold change vs veh, PPP3R1 / RFU, PIK3R1 / Fold change vs veh, PIK3R1 / RFU, HNRNPA1 / Fold change vs veh, HNRNPA1 / RFU, RNF170 / Fold change vs veh, RNF170 / RFU, ZNF28 / Fold change vs veh, ZNF28 / RFU, RNGTT / Fold change vs veh, RNGTT / RFU, OGT / Fold change vs veh, OGT / RFU, BRD1 / Fold change vs veh, BRD1 / RFU, MARS / Fold change vs veh, MARS / RFU, ZNF655 / Fold change vs veh, ZNF655 / RFU, FAHD1 / Fold change vs veh, FAHD1 / RFU, BDP1 / Fold change vs veh, BDP1 / RFU, LRRCC1 / Fold change vs veh, LRRCC1 / RFU, ARID1A / Fold change vs veh, ARID1A / RFU, ZNF146 / Fold change vs veh, ZNF146 / RFU, ZNF330 / Fold change vs veh, ZNF330 / RFU, GPN3 / Fold change vs veh, GPN3 / RFU, C9orf123 / Fold change vs veh, C9orf123 / RFU, N4BP2L2 / Fold change vs veh, N4BP2L2 / RFU, ARFIP1 / Fold change vs veh, ARFIP1 / RFU, FAM179B / Fold change vs veh, FAM179B / RFU, BCL10 / Fold change vs veh, BCL10 / RFU, UHRF1BP1L / Fold change vs veh, UHRF1BP1L / RFU, BET1 / Fold change vs veh, BET1 / RFU, CNOT2 / Fold change vs veh, CNOT2 / RFU, ZNF268 / Fold change vs veh, ZNF268 / Fold change vs veh, ZNF507 / RFU, DGCR2 / Fold change vs veh, DGCR2 / RFU, WDSUB1 / Fold change vs veh, WDSUB1 / Fold change vs veh, HSP90B1 /// MIR3652 / RFU, ADSS / Fold change vs veh, ADSS / RFU, GK / Fold change vs veh, GK / RFU, ZNF148 / Fold change vs veh, ZNF148 / RFU, TAF9 / Fold change vs veh, TAF9 / RFU, SLC1A5 / Fold change vs veh, SLC1A5 / RFU, SLMO2 / Fold change vs veh, SLMO2 / RFU, ABCC4 / Fold change vs veh, ABCC4 / RFU, LOC101060439 /// RAP1B / Fold change vs veh, LOC101060439 /// RAP1B / RFU, RFX7 / Fold change vs veh, RFX7 / RFU, GTPBP10 / Fold change vs veh, GTPBP10 / RFU, CNEP1R1 / Fold change vs veh, CNEP1R1 / RFU, BIVM-ERCC5 /// ERCC5 / Fold change vs veh, BIVM-ERCC5 /// ERCC5 / RFU, ILF3 / Fold change vs veh, ILF3 / RFU 11762660_at / Fold change /veh 11762660_at / RFU VCAN (11757783_s_at) / Fold change /veh VCAN (11757783_s_at) / RFU DDX43 (11728927_at) / Fold change /veh DDX43 (11728927_at) / RFU KRT8 (11758188_x_at) / Fold change /veh KRT8 (11758188_x_at) / RFU NKD1 (11759106_at) / Fold change /veh NKD1 (11759106_at) / RFU SRD5A1 (11742802_a_at) / Fold change /veh SRD5A1 (11742802_a_at) / RFU TPSAB1 /// TPSB2 (11721975_s_at) / Fold change /veh TPSAB1 /// TPSB2 (11721975_s_at) / RFU GSTM3 (11746129_a_at) / Fold change /veh GSTM3 (11746129_a_at) / RFU IL23R (11737362_x_at) / Fold change /veh IL23R (11737362_x_at) / RFU TMEM51 (11727254_a_at) / Fold change /veh TMEM51 (11727254_a_at) / RFU PIWIL2 (11732686_x_at) / Fold change /veh PIWIL2 (11732686_x_at) / RFU ORM1 (11744905_x_at) / Fold change /veh ORM1 (11744905_x_at) / RFU CCDC152 (11743942_at) / Fold change /veh CCDC152 (11743942_at) / RFU ECM1 (11717891_a_at) / Fold change /veh ECM1 (11717891_a_at) / RFU IL23R (11748794_a_at) / Fold change /veh IL23R (11748794_a_at) / RFU TNFAIP8L3 (11732012_x_at) / Fold change /veh TNFAIP8L3 (11732012_x_at) / RFU MBOAT4 (11741988_at) / Fold change /veh MBOAT4 (11741988_at) / RFU 11764193_at / Fold change /veh 11764193_at / RFU TMEM53 (11763286_at) / Fold change /veh TMEM53 (11763286_at) / RFU MAGEB2 (11727129_at) / Fold change /veh MAGEB2 (11727129_at) / RFU TMEM200A (11744735_a_at) / Fold change /veh TMEM200A (11744735_a_at) / RFU CCDC152 (11751479_a_at) / Fold change /veh CCDC152 (11751479_a_at) / RFU FAM211A (11726209_a_at) / Fold change /veh FAM211A (11726209_a_at) / RFU RGS16 (11746705_a_at) / Fold change /veh RGS16 (11746705_a_at) / RFU VCAN (11755009_s_at) / Fold change /veh VCAN (11755009_s_at) / RFU RHOB (11743442_s_at) / Fold change /veh RHOB (11743442_s_at) / RFU RGS16 (11720943_a_at) / Fold change /veh RGS16 (11720943_a_at) / RFU RGS16 (11720944_at) / Fold change /veh RGS16 (11720944_at) / RFU, VPS4B / Fold change vs veh, VPS4B / RFU, CREB1 / Fold change vs veh, CREB1 / RFU, DNAJC13 / Fold change vs veh, DNAJC13 / RFU, GNAQ / Fold change vs veh, GNAQ / RFU, CDK5R1 / Fold change vs veh, CDK5R1 / RFU, ZRANB3 / Fold change vs veh, ZRANB3 / RFU, CUL4A / Fold change vs veh, CUL4A / RFU, CCNY / Fold change vs veh, CCNY / RFU, UFL1 / Fold change vs veh, UFL1 / RFU, COG3 / Fold change vs veh, COG3 / RFU, DIAPH2 / Fold change vs veh, DIAPH2 / RFU, SKA2 / Fold change vs veh, SKA2 / RFU, AFF3 / Fold change vs veh, AFF3 / RFU, LMF1 / Fold change vs veh, LMF1 / RFU, IPO11 / Fold change vs veh, IPO11 / RFU, DFFB / Fold change vs veh, DFFB / RFU, FOXP1 / Fold change vs veh, FOXP1 / RFU, CARD8 / Fold change vs veh, CARD8 / RFU, STRN3 / Fold change vs veh, STRN3 / RFU, ADK / Fold change vs veh, ADK / RFU, RASSF2 / Fold change vs veh, RASSF2 / RFU, WIPF1 / Fold change vs veh, WIPF1 / RFU, LARP1B / Fold change vs veh, LARP1B / RFU, RASA1 / Fold change vs veh, RASA1 / RFU, RB1 / Fold change vs veh, RB1 / RFU, PPFIA1 / Fold change vs veh, PPFIA1 / RFU, MAT2A / Fold change vs veh, MAT2A / RFU, CCT5 / Fold change vs veh, CCT5 / RFU, WDR92 / Fold change vs veh, WDR92 / RFU, CUX1 / Fold change vs veh, CUX1 / RFU, TTC7A / Fold change vs veh, TTC7A / RFU, TMEM135 / Fold change vs veh, TMEM135 / RFU, DEPTOR / Fold change vs veh, DEPTOR / RFU, CPM / Fold change vs veh, CPM / RFU, DNAJB6 / Fold change vs veh, DNAJB6 / RFU, CACNA2D3 / Fold change vs veh, CACNA2D3 / RFU, DTX4 / Fold change vs veh, DTX4 / RFU, TFCP2 / Fold change vs veh, TFCP2 / RFU, GMCL1 /// GMCL1P1 / Fold change vs veh, GMCL1 /// GMCL1P1 / RFU, AEBP2 / Fold change vs veh, AEBP2 / RFU, SNHG1 /// SNORD22 /// SNORD25 /// SNORD26 /// SNORD27 /// SNORD28 /// SNORD29 /// SNORD31 / Fold change vs veh, SNHG1 /// SNORD22 /// SNORD25 /// SNORD26 /// SNORD27 /// SNORD28 /// SNORD29 /// SNORD31 / Fold change (Aza/veh), C12orf56 (ProbeSet 11735607_a_at) / Fold change (ACY-1035/veh), C12orf56 (ProbeSet 11735607_a_at) / Fold change (Aza/veh), FGFR1OP (ProbeSet 11751329_s_at) / Fold change (ACY-1035/veh), FGFR1OP (ProbeSet 11751329_s_at) / Fold change (Aza/veh), VPS36 (ProbeSet 11739960_a_at) / Fold change (ACY-1035/veh), VPS36 (ProbeSet 11739960_a_at) / RFU SYPL1 (11715823_x_at) / Fold change /veh SYPL1 (11715823_x_at) / RFU IGFBP7 (11715501_s_at) / Fold change /veh IGFBP7 (11715501_s_at) / RFU REEP3 (11722064_at) / Fold change /veh REEP3 (11722064_at) / RFU IGLL1 (11728026_x_at) / Fold change /veh IGLL1 (11728026_x_at): dose or concentration left out as unconfirmed
Settings: MV-4-11 cells, 48 hours

Nc1ccc(-c2cccs2)cc1NC(=O)c1ccc2c(c1)cc(C1CC1)n2CCN1CCOCC1 [ACY-1035]
Fold change /veh IRGQ (11745062_a_at): 0.91
